# Measured values taken from patent US20110052700A1, “GASTRIC RETENTIVE PHARMACEUTICAL COMPOSITIONS FOR IMMEDIATE AND EXTENDED RELEASE OF LEVOSULPIRIDE” (DEPOMED, INC., priority 2009, published 2011).
# Columns and labels:
# [1] = Stress stability study, open dishes at 50° C or 80° C, 75% RH, 3 days, HPLC impurity analysis; format: physicochemical
# Experimental: In the present work, levosulpiride was subjected to stress and compatibility studies using methods published in the European Pharmacopoeia, Supplement 2001, 1572 Assay. Both levosulpiride powder and granules comprising 95 wt % levosulpiride and 5 wt % povidone (PVP) prepared as described in Example 1 were incubated in open dishes in a stability chamber/oven at 50° C. or 80° C., 75% relative humidity (RH) for 3 days. The substances were then analyzed by HPLC (high performance liquid chromatography). The mobile phase (MP) was composed of 10% acetonitrile (ACN), 10% methanol (MeOH) and an 80% solution containing 6.8 g/l of potassium dihydrogen phosphate and 1 g/l of sodium octanesulphonate, pH 3.3. The column was a 0.25 m×4.6 mm, 5 μm Zorbax RX C8 (Agilent, Inc.), flow was set at 1.5 ml/min with a wavelength of 240 nm.
# [2] = Excipient compatibility study, HDPE bottles, 40° C, 75% RH, HPLC impurity analysis; format: physicochemical
# Experimental: Studies were done to determine compatibility of the levosulpiride with the various excipients used in the formulations described herein. Samples, as described in Table 12 below, were packaged into 60 cc high-density polyethylene (HDPE) bottles with an induction seal, then stored at 40° C., 75% relative humidity (RH). Samples may be taken at various time points to analyze for the presence of impurities.
# Various samples comprised of the levosulpiride with excipients as described in Table 11 below were packaged in 60 cc HDPE bottles with induction seals, then stored at 40° C., 75% RH. Samples were analyzed at 1 and 2 months using HPLC according to the method described in Example 6.
# [3] = 1 vs. 2 month (one value given)
smiles,measurement,setting,value
CCN1CCC[C@H]1CNC(=O)c1cc(S(N)(=O)=O)ccc1OC [Levosulpiride],Impurities under the stressed condition,"[1]; 50° C. or 80° C., 75% RH, 3 days",did not increase
same,Impurity B RPA (%),"[1]; 50° C./75% RH, Time = 3 days",<0.05%
same,Levosulpiride peak RPA (%),"[1]; 50° C./75% RH, Time = 3 days",100%
same,Unknown Impurity 1 RPA (%),"[1]; 50° C./75% RH, Time = 3 days",<0.05%
same,Unknown Impurity 2 RPA (%),"[1]; 50° C./75% RH, Time = 3 days",0.20%
same,Impurity B RPA (%),"[1]; 80° C./75% RH, Time = 3 days",<0.05%
same,Levosulpiride peak RPA (%),"[1]; 80° C./75% RH, Time = 3 days",100%
same,Unknown Impurity 1 RPA (%),"[1]; 80° C./75% RH, Time = 3 days",<0.05%
same,Unknown Impurity 2 RPA (%),"[1]; 80° C./75% RH, Time = 3 days",0.22%
same,Impurity B RPA (%),[1]; Time = 0,<0.05%
same,Levosulpiride peak RPA (%),[1]; Time = 0,100%
same,Unknown Impurity 1 RPA (%),[1]; Time = 0,<0.05%
same,Unknown Impurity 2 RPA (%),[1]; Time = 0,0.17%
same,Unknown Impurity 2 RPA (%),[2]; 1 month,0.18%
same,Impurity B RPA (%),[2]; [3],<0.05%
same,Levosulpiride peak RPA (%),[2]; [3],100%
same,Unknown Impurity 1 RPA (%),[2]; [3],<0.05%
same,Unknown Impurity 2 RPA (%),[2]; 2 month,0.19%
